Measured values as given in patent publication US10821115B2, “Compounds that inhibit Mcl-1 protein” (priority 2017, dated 2020).
pIC50: −log10 of the molar value. Where two headings read alike, the source gives them in different places.

Test system: human multiple myeloma cell line, OPM-2
Assay: Cell viability assay (OPM-2 10 FBS), CellTiter-Glo
Format: cell-based
Procedure: Cell viability assay (OPM-2 10 FBS)
The human multiple myeloma cell line, OPM-2, was cultured in complete growth medium containing RPMI 1640 and 10% fetal bovine serum (FBS). Cells were seeded into 384-well plates at 3000 cells/well density in complete growth medium containing 10% FBS, and incubated for 16 h with serially diluted test compounds in a 37° C. incubator with 5% CO2. Cell viability was tested using CellTiter-Glo® assay (Promega, Madison, Wis.) according to the manufacturer recommendations. Luminescence was determined using an EnVision® Multilabel plate reader 25 min after the addition of detection reagent. IC50 values were then calculated with Xlfit using a logistical 4-parameter fit model in GraphPad Prism (GraphPad Software, San Diego, Calif.) or in Genedata Screener® (Genedata, Basel, Switzerland).

[1] = read-out: OPM-2 10% FBS IC50 IP, OPM-2 cells, 10% FBS, 16 h incubation
[2] = Homo sapiens, OPM-2, 16 h, read-out: OPM-2 10% FBS IC50 IP, OPM-2 cells, 10% FBS, 16 h incubation

Compound | pIC50 [1] | pIC50 [2]
COCC[C@@H]1[C@@H](C)C/C=C/[C@](CN2CCN3CCOC[C@@H]3C2)(OC)[C@@H]2CC[C@H]2CN2C[C@@]3(CCCc4cc(Cl)ccc43)COc3ccc(nc32)C(=O)NS1(=O)=O [Example 20, (1 S,3′R,6′R,7′S,8′E,11′S, 12′R)-6-chloro-7′-((9aS)-hexahydropyrazino[2,1-c][1,4]oxazin-8(1H)-ylmethyl)-7′-methoxy-12′-(2-methoxyethyl)-11′-methyl-3,4-dihydro-2H,15′H-spiro[naphthalene-1,22′-[20]oxa[13]thia[1,14,25]triazatetracyclo[14.7.2.0-3,6˜.0˜19,24˜]pentacosa[8,16,18,24]tetraen]-15′-one 13′,13′-dioxide] | 7.66 | 
CC[C@@H]1CC/C=C/[C@@](CN2CCN3CCCC[C@@H]3C2)(OC)[C@@H]2CC[C@H]2CN2C[C@@]3(CCCc4cc(Cl)ccc43)COc3ccc(cc32)C(=O)N(C)S1(=O)=O [Example 33, (1 S,3′R,6′R,7′R,8′E,12′R)-6-chloro-12′-ethyl-7′-methoxy-14′-methyl-7′-((9aR)-octahydro-2H-pyrido[1,2-a]pyrazin-2-ylmethyl)-3,4-dihydro-2H,15′H-spiro[naphthalene-1,22′-[20]oxa[13]thia[1,14]diazatetracyclo[14.7.2.0-3,6˜.0˜19,24˜]pentacosa[8,16,18,24]tetraen]-15′-one 13′,13′-dioxide] |  | 5.25
CO[C@@]1(CNCCN2CCOCC2)/C=C/C[C@H](C)[C@@H](C)S(=O)(=O)NC(=O)c2ccc3c(c2)N(C[C@@H]2CC[C@H]21)C[C@@]1(CCCc2cc(Cl)ccc21)CO3 [Example 34, (1 S,3′R,6′R,7′S,8′E,11′S,12′R)-6-chloro-7′-methoxy-11′,12′-dimethyl-7′-(((2-(4-morpholinyl)ethyl)amino)methyl)-3,4-dihydro-2H, 15′H-spiro[naphthalene-1,22′-[20]oxa[13]thia[1,14]diazatetracyclo[14.7.2.0˜3,6˜.0˜19,24˜]pentacosa[8,16,18,24]tetraen]-15′-one 13′,13′-dioxide] |  | 6.42
CO[C@]1(CNCCN2CCOCC2)/C=C/C[C@H](C)[C@@H](C)S(=O)(=O)NC(=O)c2ccc3c(c2)N(C[C@@H]2CC[C@H]21)C[C@@]1(CCCc2cc(Cl)ccc21)CO3 [Example 36, (1S,3′R,6′R,7′R,8′E,11′S,12′R)-6-chloro-7′-methoxy-11′,12′-dimethyl-7′-(((2-(4-morpholinyl)ethyl)amino)methyl)-3,4-dihydro-2H,15′H-spiro[naphthalene-1,22′-[20]oxa[13]thia[1,14]diazatetracyclo [14.7.2.0~3,6~.0~19,24~]pentacosa[8,16,18,24]tetraen]-15′-one 13′,13′-dioxide] |  | 6.29
CO[C@]1(CN2CCN3CCCC[C@H]3C2)/C=C/C[C@H](C)[C@@H](C)S(=O)(=O)NC(=O)c2ccc3c(c2)N(C[C@@H]2CC[C@H]21)C[C@@]1(CCCc2cc(Cl)ccc21)CO3 [Example 78, (1S,3′R,6′R,7′R,8′E,11′S,12′R)-6-chloro-7′-methoxy-11′,12′-dimethyl-7′-((9aS)-octahydro-2H-pyrido[1,2-a]pyrazin-2-ylmethyl)-3,4-dihydro-2H,15′H-spiro[naphthalene-1,22′-[20]oxa[13]thia[1,14]diazateracyclo [14.7.2.0~3,6~.0~19,24~]pentacosa[8,16,18,24]tetraen]-15′-one 13′,13′-dioxide] |  | 6.76
CO[C@@]1(CN2CCN3CCCC[C@H]3C2)/C=C/C[C@H](C)[C@@H](C)S(=O)(=O)NC(=O)c2ccc3c(c2)N(C[C@@H]2CC[C@H]21)C[C@@]1(CCCc2cc(Cl)ccc21)CO3 [Example 79, (1S,3′R,6′R,7′S,8′E,11′S,12′R)-6-chloro-7′-methoxy-11′,12′-dimethyl-7′-((9aS)-octahydro-2H-pyrido[1,2-a]pyrazin-2-ylmethyl)-3,4-dihydro-2H,15′H-spiro[naphthalene-1,22′-[20]oxa[13]thia[1,14]diazatetracyclo [14.7.2.0~3,6~.0~19,24~]pentacosa[8,16,18,24]tetraen]-15′-one 13′,13′-dioxide] |  | 6.61
CO[C@@]1(CN2CCN(CCS(C)(=O)=O)CC2)/C=C/C[C@H](C)[C@@H](C)S(=O)(=O)NC(=O)c2ccc3c(c2)N(C[C@@H]2CC[C@H]21)C[C@@]1(CCCc2cc(Cl)ccc21)CO3 [Example 81] |  | 6.95
CO[C@]1(CN2CCN(CC(F)(F)F)CC2)/C=C/C[C@H](C)[C@@H](C)S(=O)(=O)NC(=O)c2ccc3c(c2)N(C[C@@H]2CC[C@H]21)C[C@@]1(CCCc2cc(Cl)ccc21)CO3 [Example 93, (1S,3′R,6′R,7′R,8′E,11′S,12′R)-6-chloro-7′-methoxy-11′,12′-dimethyl-7′-((4-(2,2,2-trifluoroethyl)-1-piperazinyl)methyl)-3,4-dihydro-2H,15′H-spiro[naphthalene-1,22′-[20]oxa[13]thia[1,14]diazatetracyclo [14.7.2.0~3,6~.0~19,24~]pentacosa[8,16,18,24]tetraen]-15′-one 13′,13′-dioxide] |  | 6.03
C[C@@H]1[C@@H](C)C/C=C/[C@@](O)(CN2CCOC[C@@H]2Cn2ccnc2)[C@@H]2CC[C@H]2CN2C[C@@]3(CCCc4cc(Cl)ccc43)COc3ccc(cc32)C(=O)NS1(=O)=O [Example 100, (1 S,3′R,6′R,7′S,8′E,11′S, 12′R)-6-chloro-7′-hydroxy-7′-(((3S)-3-(1H-imidazol-1-ylmethyl)-4-morpholinyl)methyl)-11′,12′-dimethyl-3,4-dihydro-2H, 15′H-spiro[naphthalene-1,22′-[20]oxa[13]thia[1,14]diazatetracyclo[14.7.2.0-3,6˜.0˜19,24˜]pentacosa[8,16,18,24]tetraen]-15′-one 13′,13′-dioxide] |  | 5.78
CCO[C@]1(CN2CCN(C(COC)COC)CC2)/C=C/C[C@H](C)[C@@H](C)S(=O)(=O)NC(=O)c2ccc3c(c2)N(C[C@@H]2CC[C@H]21)C[C@@]1(CCCc2cc(Cl)ccc21)CO3 [Example 116, (1S,3′R,6′R,7′R,8′E,11′S,12′R)-6-chloro-7′-ethoxy-7′-((4-(2-methoxy-1-(methoxymethyl)ethyl)-1-piperazinyl)methyl)-11′,12′-dimethyl-3,4-dihydro-2H,15′H-spiro[naphthalene-1,22′-[20]oxa[13]thia[1,14]diazatetracyclo [14.7.2.0~3,6~.0~19,24~]pentacosa[8,16,18,24]tetraen]-15′-one 13′,13′-dioxide] |  | 6.41
C[C@@H]1[C@@H](C)C/C=C/[C@@](O)(CNC(C)(C)C)[C@@H]2CC[C@H]2CN2C[C@@]3(CCCc4cc(Cl)ccc43)COc3ccc(cc32)C(=O)NS1(=O)=O [Example 125, (1S,3′R,6′R,7′S,8′E,11′S,12′R)-7′-((tert-butylamino)methyl)-6-chloro-7′-hydroxy-11′,12′-dimethyl-3,4-dihydro-2H,15′H-spiro[naphthalene-1,22′-[20]oxa[13]thia[1,14]diazatetracyclo[14.7.2.0-3,6˜.0˜19,24˜]pentacosa[8,16,18,24]tetraen]-15′-one 13′,13′-dioxide] |  | 5.83
CC(C)N(CCO)C[C@]1(O)/C=C/C[C@H](C)[C@@H](C)S(=O)(=O)NC(=O)c2ccc3c(c2)N(C[C@@H]2CC[C@H]21)C[C@@]1(CCCc2cc(Cl)ccc21)CO3 [Example 126, (1 S,3′R,6′R,7′S,8′E,11′S,12′R)-6-chloro-7′-hydroxy-7′-(((2-hydroxyethyl)(1-methylethyl)amino)methyl)-11′,12′-dimethyl-3,4-dihydro-2H, 15′H-spiro[naphthalene-1,22′-[20]oxa[13]thia[1,14]diazatetracyclo[14.7.2.0-3,6˜.0˜19,24˜]pentacosa[8,16,18,24]tetraen]-15′-one 13′,13′-dioxide] |  | 6.05
C[C@@H]1[C@@H](C)C/C=C/[C@]2(CN(Cc3ccccc3)CCO2)[C@@H]2CC[C@H]2CN2C[C@@]3(CCCc4cc(Cl)ccc43)COc3ccc(cc32)C(=O)NS1(=O)=O [Example 138, (1 S,3′R,6′R,7′R,8′E, 11′S,12′R)-4″-benzyl-6-chloro-11′,12′-dimethyl-3,4-dihydro-2H,15′H-dispiro[naphthalene-1,22′-[20]oxa[13]thia[1,14]diazatetracyclo[14.7.2.0-3,6˜.0˜19,24˜]pentacosa[8,16,18,24]tetraene-7′,2″-[1,4]oxazinan]-15′-one 13′,13′-dioxide] |  | < 4.48
CO[C@@]1(C(=O)N(C)C)/C=C/C[C@H](C)[C@@H](C)S(=O)(=O)NC(=O)c2ccc3c(c2)N(C[C@@H]2CC[C@H]21)C[C@@]1(CCCc2cc(Cl)ccc21)CO3 [Example 176, (1S,3′R,6′R,7′S,8′E,11′S,12′R)-6-chloro-7′-methoxy-N,N, 11′,12′-tetramethyl-15′-oxo-3,4-dihydro-2H-spiro[naphthalene-1,22′-[20]oxa[13]thia[1,14]diazatetracyclo[14.7.2.0-3,6˜.0˜19,24˜]pentacosa[8,16,18,24]tetraene]-7′-carboxamide 13′,13′-dioxide] | 6.83 | 
CO[C@]1(C(=O)N(C)C)/C=C/C[C@H](C)[C@@H](C)S(=O)(=O)NC(=O)c2ccc3c(c2)N(C[C@@H]2CC[C@H]21)C[C@@]1(CCCc2cc(Cl)ccc21)CO3 [Example 177, (1S,3′R,6′R,7′R,8′E,11′S,12′R)-6-chloro-7′-methoxy-N,N, 11′,12′-tetramethyl-15′-oxo-3,4-dihydro-2H-spiro[naphthalene-1,22′-[20]oxa[13]thia[1,14]diazatetracyclo[14.7.2.0-3,6˜.0˜19,24˜]pentacosa[8,16,18,24]tetraene]-7′-carboxamide 13′,13′-dioxide] | 6.21 | 
